This passage reports mutagenic call results from PubChem BioAssay AID1259407 (Chemical Carcinogenesis Research Information System (CCRIS), 2018).

In this data set the test system is CCRIS mutagenicity, Ames/micronucleus/aberration tests. Nature of the data set: CCRIS mutagenicity studies.
Where [1] appears, read: Test System: AMES SALMONELLA TYPHIMURIUM, Strain/Indicator: TA100, Metabolic Activation: NONE, Method: STANDARD PLATE.
Setting [2] is: Test System: AMES SALMONELLA TYPHIMURIUM, Strain/Indicator: TA102, Metabolic Activation: NONE, Method: STANDARD PLATE.

Calls of active or inactive are those of the source. No rule for the calls is given here.

Regarding `CCCCOCCO`, the mutagenic call (Test System: AMES SALMONELLA TYPHIMURIUM, Strain/Indicator: TA97, Metabolic Activation: HAMSTER, LIVER, S-9, AROCLOR 1254 (10 OR 30%), Method: PREINCUBATION) is “inactive; negative”; the mutagenic call (Test System: AMES SALMONELLA TYPHIMURIUM, Strain/Indicator: TA97, Metabolic Activation: NONE, Method: PREINCUBATION) is “inactive; negative”; the mutagenic call (Test System: AMES SALMONELLA TYPHIMURIUM, Strain/Indicator: TA97, Metabolic Activation: RAT, LIVER, S-9, AROCLOR 1254 (5, 10 OR 30%), Method: PREINCUBATION) was “inactive; negative”; the mutagenic call (Test System: AMES SALMONELLA TYPHIMURIUM, Strain/Indicator: TA97A, Metabolic Activation: RAT, LIVER, S-9, AROCLOR 1254 (2.5 OR 10%), Method: STANDARD PLATE) was “inactive; negative”; the mutagenic call (Test System: AMES SALMONELLA TYPHIMURIUM, Strain/Indicator: TA97A, Metabolic Activation: RAT, LIVER, S-9, AROCLOR 1254, Method: STANDARD PLATE) was “active; positive”; the mutagenic call (Test System: AMES SALMONELLA TYPHIMURIUM, Strain/Indicator: TA98, Metabolic Activation: HAMSTER, LIVER, S-9, AROCLOR 1254 (10 OR 30%), Method: PREINCUBATION) was “inactive; negative”. The mutagenic call is, setting by setting: (Test System: AMES SALMONELLA TYPHIMURIUM, Strain/Indicator: TA98, Metabolic Activation: NONE, Method: PREINCUBATION) “inactive; negative”; (Test System: AMES SALMONELLA TYPHIMURIUM, Strain/Indicator: TA98, Metabolic Activation: NONE, Method: STANDARD PLATE) “inactive; negative”; (Test System: AMES SALMONELLA TYPHIMURIUM, Strain/Indicator: TA98, Metabolic Activation: RAT, LIVER, S-9, AROCLOR 1254 (10 OR 30%), Method: PREINCUBATION) “inactive; negative”; (Test System: AMES SALMONELLA TYPHIMURIUM, Strain/Indicator: TA98, Metabolic Activation: RAT, LIVER, S-9, AROCLOR 1254, Method: STANDARD PLATE) “inactive; negative”; (Test System: AMES SALMONELLA TYPHIMURIUM, Strain/Indicator: TA100, Metabolic Activation: HAMSTER, LIVER, S-9, AROCLOR 1254 (10 OR 30%), Method: PREINCUBATION) “inactive; negative”; (Test System: AMES SALMONELLA TYPHIMURIUM, Strain/Indicator: TA100, Metabolic Activation: NONE, Method: PREINCUBATION) “inactive; negative”. Further, the mutagenic call runs as follows: under setting [1], “inactive; negative”; (Test System: AMES SALMONELLA TYPHIMURIUM, Strain/Indicator: TA100, Metabolic Activation: RAT, LIVER, S-9, AROCLOR 1254 (2.5 OR 10%), Method: STANDARD PLATE) “inactive; negative”; (Test System: AMES SALMONELLA TYPHIMURIUM, Strain/Indicator: TA100, Metabolic Activation: RAT, LIVER, S-9, AROCLOR 1254 (10 OR 30%), Method: PREINCUBATION) “inactive; negative”; (Test System: AMES SALMONELLA TYPHIMURIUM, Strain/Indicator: TA100, Metabolic Activation: RAT, LIVER, S-9, AROCLOR 1254, Method: STANDARD PLATE) “inactive; negative”; under setting [2], “inactive; negative”; (Test System: AMES SALMONELLA TYPHIMURIUM, Strain/Indicator: TA102, Metabolic Activation: RAT, LIVER, S-9, AROCLOR 1254, Method: STANDARD PLATE) “inactive; negative”. For the same compound, the mutagenic call reads like this: (Test System: AMES SALMONELLA TYPHIMURIUM, Strain/Indicator: TA1535, Metabolic Activation: HAMSTER, LIVER, S-9, AROCLOR 1254 (10 OR 30%), Method: PREINCUBATION) “inactive; negative”; (Test System: AMES SALMONELLA TYPHIMURIUM, Strain/Indicator: TA1535, Metabolic Activation: NONE, Method: PREINCUBATION) “inactive; negative”; (Test System: AMES SALMONELLA TYPHIMURIUM, Strain/Indicator: TA1535, Metabolic Activation: RAT, LIVER, S-9, AROCLOR 1254 (10 OR 30%), Method: PREINCUBATION) “inactive; negative”; (Test System: AMES SALMONELLA TYPHIMURIUM, Strain/Indicator: TA1537, Metabolic Activation: HAMSTER, LIVER, S-9, AROCLOR 1254 (30%), Method: PREINCUBATION) “inactive; negative”; (Test System: AMES SALMONELLA TYPHIMURIUM, Strain/Indicator: TA1537, Metabolic Activation: NONE, Method: PREINCUBATION) “inactive; negative”; (Test System: AMES SALMONELLA TYPHIMURIUM, Strain/Indicator: TA1537, Metabolic Activation: RAT, LIVER, S-9, AROCLOR 1254 (30%), Method: PREINCUBATION) “inactive; negative”. Further, the mutagenic call by setting is: (Test System: CHINESE HAMSTER OVARY, Strain/Indicator: CHO-AS52/6-THIOGUANINE, Metabolic Activation: NONE) “inactive; negative”; (Test System: CHINESE HAMSTER V-79, Strain/Indicator: V-79 (HPRT)/6-THIOGUANINE, Metabolic Activation: NONE) “active; positive”; (Test System: E. COLI, Strain/Indicator: WP2 UVRA, Metabolic Activation: NONE, Method: STANDARD PLATE) “inactive; negative”; (Test System: E. COLI, Strain/Indicator: WP2 UVRA, Metabolic Activation: RAT, LIVER, S-9, AROCLOR 1254 (2.5 OR 10%), Method: STANDARD PLATE) “inactive; negative”.

As for `Cc1ccc(OC(=O)N(C)N=O)cc1C`, the mutagenic call (Test System: E. COLI WP2, Strain/Indicator: WP2, Metabolic Activation: NONE, Method: STANDARD PLATE) was “active; positive”.

With `CC(=O)CCCCn1c(=O)c2c(ncn2C)n(C)c1=O`, the mutagenic call (End Point: IN VITRO CHROMOSOMAL ABERRATIONS, Test System: HUMAN PERIPHERAL BLOOD LYMPHOCYTES, Metabolic Activation: NONE) is “active; positive (structural changes)”; the mutagenic call (End Point: IN VITRO CHROMOSOMAL ABERRATIONS, Test System: V79 CELLS, Metabolic Activation: NONE) was “active; positive (structural changes)”; the mutagenic call (End Point: IN VITRO MICRONUCLEUS, Test System: HUMAN PERIPHERAL BLOOD LYMPHOCYTES, Metabolic Activation: NONE) is “active; positive”; the mutagenic call (End Point: IN VITRO MICRONUCLEUS, Test System: V79 CELLS, Metabolic Activation: NONE) is “active; positive”; the mutagenic call (Test System: CHINESE HAMSTER V-79, Strain/Indicator: V-79 (HGPRT)/6-THIOGUANINE, Metabolic Activation: NONE) was “inactive; negative”; the mutagenic call (Test System: CHINESE HAMSTER V-79, Strain/Indicator: V-79 (HGPRT)/6-THIOGUANINE, Metabolic Activation: S-9) was “inactive; negative”.

`Cn1nnc2c(C(N)=O)ncn2c1=O`: the mutagenic call is, setting by setting: (End Point: IN VITRO CHROMOSOMAL ABERRATIONS, Test System: HUMAN HCT116/3-6 CELLS, Metabolic Activation: NONE) “active; positive”; (End Point: IN VITRO CHROMOSOMAL ABERRATIONS, Test System: HUMAN HCT116 CELLS, Metabolic Activation: NONE) “active; positive”; (End Point: IN VITRO CHROMOSOMAL ABERRATIONS, Test System: HUMAN MT1 CELLS, Metabolic Activation: NONE) “active; positive”; (End Point: IN VITRO CHROMOSOMAL ABERRATIONS, Test System: HUMAN TK6 CELLS, Metabolic Activation: NONE) “active; positive”.

As for `CCCCCCNC(=O)n1cc(F)c(=O)[nH]c1=O`, the mutagenic call by setting is: (Test System: AMES SALMONELLA TYPHIMURIUM, Strain/Indicator: TA98, Metabolic Activation: S-9, Method: STANDARD PLATE) “inactive; negative”; under setting [1], “inactive; negative”; (Test System: AMES SALMONELLA TYPHIMURIUM, Strain/Indicator: TA100, Metabolic Activation: S-9, Method: STANDARD PLATE) “inactive; negative”; under setting [2], “inactive; negative”; (Test System: AMES SALMONELLA TYPHIMURIUM, Strain/Indicator: TA1537, Metabolic Activation: NONE, Method: STANDARD PLATE) “inactive; negative”; (Test System: AMES SALMONELLA TYPHIMURIUM, Strain/Indicator: TA1537, Metabolic Activation: S-9, Method: STANDARD PLATE) “inactive; negative”. Besides, the mutagenic call (Test System: E. COLI, Strain/Indicator: WP2 (HCR), Metabolic Activation: NONE, Method: STANDARD PLATE) is “inactive; negative” and the mutagenic call (Test System: E. COLI, Strain/Indicator: WP2 (HCR), Metabolic Activation: S-9, Method: STANDARD PLATE) was “inactive; negative”.
